Series [1] is described as follows: plasma pharmacokinetics after oral dosing in Lewis rat. The settings on record: 10 mg/kg oral in 0.4% methylcellulose, n = 3, read-out: AUC (0-24 hr). The class given is in vivo. As to the method:
(§1) SCH 546738 was tested at concentrations of 1-10 μM against a panel of 49 GPCR binding assays. Most of the assays were not affected by SCH 546738 (Table 2). […] In addition, SCH 546738 has a favourable pharmacokinetic profile in rodents. […] Therefore, SCH 546738 is suitable for in vivo preclinical studies.
Figure 4 Plasma concentration versus time profiles of SCH 546738 in Lewis rat and C57BL/6 mouse. SCH 546738 in 0.4% methylcellulose was administered orally at 10 mg/kg (mpk) in Lewis rats or 30 mpk in C57BL/6 mice. The plasma concentration of SCH 546738 in the blood was calculated as the mean of 3 animals (n = 3) at indicated time points post-dose. Their AUC from 0 to 24 hr is also calculated and indicated.

Another series has as its target Muscarinic M2 (Homo sapiens, UniProt P08172). The series can be described thus: GPCR counterscreen binding assay. Here is the method:
as §1
Background: Counterscreens check selectivity or assay interference.

A further series deals with Prokineticin PKR2 (Homo sapiens, UniProt Q8NFJ6). The series can be described thus: GPCR counterscreen binding assay. As to the method: as §1
For another series, the target named is Vasopressin (V1b) (Homo sapiens, UniProt P47901). Description: GPCR counterscreen binding assay. As to the method:
as §1

For another series, the target named is Neurokinin NK3 (Homo sapiens, UniProt P29371). The series can be described thus: GPCR counterscreen binding assay. As to the method:
as §1

For a further series, the target named is Mu opiate (Homo sapiens, UniProt P35372). The series can be described thus: GPCR counterscreen binding assay. Here is the method:
as §1

The target of another series is Adrenergic α1A (Homo sapiens, UniProt P35348). Description: GPCR counterscreen binding assay. As to the method: as §1
The target in the next series is Serotonergic 5HT1A (Homo sapiens, UniProt P08908). The series can be described thus: GPCR counterscreen binding assay. As to the method:
as §1

Another series has as its target Muscarinic M1 (Homo sapiens, UniProt P11229). Description: GPCR counterscreen binding assay. As to the method:
as §1

A further series concerns the target Purinergic P2Y1 (Homo sapiens, UniProt P47900). The series can be described thus: GPCR counterscreen binding assay. As to the method: as §1
The next series concerns the target Neurokinin NK1 (Homo sapiens, UniProt P25103). Description: GPCR counterscreen binding assay. As to the method:
as §1

The target in a further series is Neuropeptide Y (Y5) (Homo sapiens, UniProt Q15761). The series can be described thus: GPCR counterscreen binding assay. Here is the method:
as §1

A further series has as its target Adenosine A1 (Homo sapiens, UniProt P30542). Description: GPCR counterscreen binding assay. Here is the method: as §1
The next series addresses CCR1 (Homo sapiens, UniProt P32246). The series can be described thus: GPCR counterscreen binding assay. As to the method:
as §1

For another series, the target named is Muscarinic M4 (Homo sapiens, UniProt P08173). Description: GPCR counterscreen binding assay. Here is the method:
as §1

The target in another series is Dopamine D4.2 (Homo sapiens, UniProt P21917, DEL265-296). Description: GPCR counterscreen binding assay. As to the method: as §1
The target of a further series is Neuropeptide Y (Y4) (Homo sapiens, UniProt P50391). Description: GPCR counterscreen binding assay. Here is the method:
as §1

In another series the target is CCR2 (Homo sapiens, UniProt P41597). Description: GPCR counterscreen binding assay. As to the method: as §1
For another series, the target named is CXCR2 (Homo sapiens, UniProt P25025). Description: GPCR counterscreen binding assay. Here is the method: as §1
Another series addresses Histamine H3 (Homo sapiens, UniProt Q9Y5N1). The series can be described thus: GPCR counterscreen binding assay. Here is the method: as §1
A further series addresses T1, CXCR3 (Homo sapiens, UniProt P49682).
T1 sequence (P49682 1-368): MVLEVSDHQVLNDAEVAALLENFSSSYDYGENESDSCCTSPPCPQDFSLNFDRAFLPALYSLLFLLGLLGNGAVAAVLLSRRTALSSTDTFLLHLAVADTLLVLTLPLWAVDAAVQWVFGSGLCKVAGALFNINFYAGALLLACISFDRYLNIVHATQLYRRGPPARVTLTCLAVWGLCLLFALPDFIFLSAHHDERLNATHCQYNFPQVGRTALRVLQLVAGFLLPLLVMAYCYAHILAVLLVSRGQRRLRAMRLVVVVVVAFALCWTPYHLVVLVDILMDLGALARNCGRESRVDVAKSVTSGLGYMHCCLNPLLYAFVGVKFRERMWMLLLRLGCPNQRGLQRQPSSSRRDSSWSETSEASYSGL
Description: [125I]hCXCL11 competition binding (SPA, Ba/F3 membranes). More on the design: expressed in transfected cells; host or cells: mouse pro-B Ba/F3 cells (vector pME18Sneo), membrane preparation. Here is the method: The cDNAs encoding human, mouse and rat CXCR3 were generated based on the published sequences: human (NM_001504), mouse (NM_009910), rat (NM_053415). The cDNAs for monkey and dog CXCR3 were cloned in the lab. All CXCR3 cDNAs were cloned into the mammalian expression vector pME18Sneo, a derivative of the SRα expression vector as described previously. IL-3-dependent mouse pro-B cells Ba/F3 were transfected to express CXCR3 of different species and cell membranes were prepared as described previously.
A scintillation proximity assay was used for radioligand competition binding assays as described previously with some modifications. For each assay point, 1 µg of membrane was preincubated for 1 hr with 300 µg wheat germ agglutinin (WGA) coated SPA beads (GE Healthcare Life Sciences) in the binding buffer (50 mM HEPES, 1 mM CaCl2, 5 mM MgCl2, 125 mM NaCl, 0.002% NaN3, 1.0% BSA) at room temperature. The beads were spun down, resuspended in the binding buffer and transferred to a 96-well Isoplate (Wallac, Gaithersburg, MD). The indicated concentrations of ^125I-hCXCL10, ^125I-hCXCL11 or ^35S-SCH 535390 with a series of titrations of SCH 546738 were added to start the reaction. After indicated reaction times at room temperature, the amount of radioactivity bound to the SPA beads was determined with a Wallac 1450 Microbeta counter (Wallac).
The ability of SCH 546738 to compete the binding of [^125I]hCXCL10 and [^125I]hCXCL11 to human CXCR3 receptor was determined using various concentrations of [^125I]hCXCL10 and [^125I]hCXCL11 as described in Methods. After 3 hr reaction, specific counts relative to input counts (B/B0) in the presence of increasing concentrations of SCH 546738 are plotted.

Read-outs that look alike come from different tables or passages of the source.

Chain of Muscarinic M4 (P08173 whole entry): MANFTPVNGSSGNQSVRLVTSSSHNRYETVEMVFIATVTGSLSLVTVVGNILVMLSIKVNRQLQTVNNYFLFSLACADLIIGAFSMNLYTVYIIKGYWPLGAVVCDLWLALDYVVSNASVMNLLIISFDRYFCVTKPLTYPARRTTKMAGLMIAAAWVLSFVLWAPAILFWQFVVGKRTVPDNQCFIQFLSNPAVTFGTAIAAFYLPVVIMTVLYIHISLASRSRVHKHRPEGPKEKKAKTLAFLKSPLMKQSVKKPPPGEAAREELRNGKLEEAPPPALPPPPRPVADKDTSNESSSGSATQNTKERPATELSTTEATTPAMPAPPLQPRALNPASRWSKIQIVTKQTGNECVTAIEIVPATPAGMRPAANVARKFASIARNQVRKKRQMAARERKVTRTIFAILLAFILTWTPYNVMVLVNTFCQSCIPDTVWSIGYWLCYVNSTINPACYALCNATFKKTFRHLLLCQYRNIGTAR
Chain of CXCR2 (P25025 whole entry): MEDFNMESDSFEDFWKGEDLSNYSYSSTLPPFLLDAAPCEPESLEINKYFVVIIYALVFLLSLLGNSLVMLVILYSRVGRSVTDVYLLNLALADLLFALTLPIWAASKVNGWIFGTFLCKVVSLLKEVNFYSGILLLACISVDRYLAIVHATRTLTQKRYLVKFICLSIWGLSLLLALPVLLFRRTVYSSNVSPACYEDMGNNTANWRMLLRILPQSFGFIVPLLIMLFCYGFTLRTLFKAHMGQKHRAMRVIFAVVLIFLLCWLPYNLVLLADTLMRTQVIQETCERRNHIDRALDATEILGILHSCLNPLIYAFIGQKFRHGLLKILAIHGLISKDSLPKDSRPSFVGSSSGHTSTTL
Chain of Adrenergic α1A (P35348 whole entry): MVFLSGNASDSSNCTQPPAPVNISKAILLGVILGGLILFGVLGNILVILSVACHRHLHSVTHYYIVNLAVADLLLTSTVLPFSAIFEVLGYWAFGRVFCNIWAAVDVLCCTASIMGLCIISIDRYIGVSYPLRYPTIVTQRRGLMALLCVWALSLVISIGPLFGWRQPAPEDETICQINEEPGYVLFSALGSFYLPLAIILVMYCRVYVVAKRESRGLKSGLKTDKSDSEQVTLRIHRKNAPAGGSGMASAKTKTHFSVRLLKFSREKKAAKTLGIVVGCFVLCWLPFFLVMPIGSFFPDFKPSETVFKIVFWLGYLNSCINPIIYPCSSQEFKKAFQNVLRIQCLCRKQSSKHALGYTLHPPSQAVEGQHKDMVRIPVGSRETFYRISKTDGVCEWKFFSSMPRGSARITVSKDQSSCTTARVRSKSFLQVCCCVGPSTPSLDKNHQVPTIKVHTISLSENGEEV
Chain of CCR1 (P32246 whole entry): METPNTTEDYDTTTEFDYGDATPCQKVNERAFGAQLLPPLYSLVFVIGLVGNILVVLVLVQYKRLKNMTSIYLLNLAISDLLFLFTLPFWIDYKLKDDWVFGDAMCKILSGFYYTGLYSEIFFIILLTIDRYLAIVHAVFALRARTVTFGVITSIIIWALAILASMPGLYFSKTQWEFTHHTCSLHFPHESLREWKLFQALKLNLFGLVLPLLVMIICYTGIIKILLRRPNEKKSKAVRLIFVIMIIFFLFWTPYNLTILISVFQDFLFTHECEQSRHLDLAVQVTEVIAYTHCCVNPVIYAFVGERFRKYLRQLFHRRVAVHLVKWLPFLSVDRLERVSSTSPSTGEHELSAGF
Chain of Purinergic P2Y1 (P47900 whole entry): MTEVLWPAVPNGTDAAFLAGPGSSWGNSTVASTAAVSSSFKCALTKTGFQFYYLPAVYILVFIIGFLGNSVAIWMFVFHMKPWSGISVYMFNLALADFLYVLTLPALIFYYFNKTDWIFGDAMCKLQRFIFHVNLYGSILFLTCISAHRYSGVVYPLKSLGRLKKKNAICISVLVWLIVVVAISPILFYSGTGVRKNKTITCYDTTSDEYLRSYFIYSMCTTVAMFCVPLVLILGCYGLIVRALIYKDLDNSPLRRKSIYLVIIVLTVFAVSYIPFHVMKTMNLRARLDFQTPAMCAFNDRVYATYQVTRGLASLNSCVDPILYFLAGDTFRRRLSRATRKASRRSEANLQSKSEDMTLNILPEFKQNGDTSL
Chain of Serotonergic 5HT1A (P08908 whole entry): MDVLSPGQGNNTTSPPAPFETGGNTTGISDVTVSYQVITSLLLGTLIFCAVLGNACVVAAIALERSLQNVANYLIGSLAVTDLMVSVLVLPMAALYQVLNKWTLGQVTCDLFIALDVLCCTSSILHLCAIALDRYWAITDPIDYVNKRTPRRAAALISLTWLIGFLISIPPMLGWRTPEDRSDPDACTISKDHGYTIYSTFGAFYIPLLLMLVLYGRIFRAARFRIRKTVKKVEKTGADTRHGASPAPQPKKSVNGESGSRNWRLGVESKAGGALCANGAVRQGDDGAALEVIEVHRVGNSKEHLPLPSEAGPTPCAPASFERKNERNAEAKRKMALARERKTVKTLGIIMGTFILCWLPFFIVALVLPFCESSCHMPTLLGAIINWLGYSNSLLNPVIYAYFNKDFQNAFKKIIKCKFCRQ
Chain of Dopamine D4.2 (P21917 with tags, fused parts or gaps DEL265-296): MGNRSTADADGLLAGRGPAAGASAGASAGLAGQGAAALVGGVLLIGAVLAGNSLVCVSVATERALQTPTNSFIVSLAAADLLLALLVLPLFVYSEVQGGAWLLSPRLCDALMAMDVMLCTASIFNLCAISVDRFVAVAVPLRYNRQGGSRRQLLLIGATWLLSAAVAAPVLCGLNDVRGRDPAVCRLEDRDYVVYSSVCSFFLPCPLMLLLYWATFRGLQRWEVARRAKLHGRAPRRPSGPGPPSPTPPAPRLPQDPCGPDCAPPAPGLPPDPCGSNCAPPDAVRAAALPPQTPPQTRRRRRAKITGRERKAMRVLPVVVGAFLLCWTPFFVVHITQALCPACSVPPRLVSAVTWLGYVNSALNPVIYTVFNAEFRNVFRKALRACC
Chain of Neurokinin NK1 (P25103 whole entry): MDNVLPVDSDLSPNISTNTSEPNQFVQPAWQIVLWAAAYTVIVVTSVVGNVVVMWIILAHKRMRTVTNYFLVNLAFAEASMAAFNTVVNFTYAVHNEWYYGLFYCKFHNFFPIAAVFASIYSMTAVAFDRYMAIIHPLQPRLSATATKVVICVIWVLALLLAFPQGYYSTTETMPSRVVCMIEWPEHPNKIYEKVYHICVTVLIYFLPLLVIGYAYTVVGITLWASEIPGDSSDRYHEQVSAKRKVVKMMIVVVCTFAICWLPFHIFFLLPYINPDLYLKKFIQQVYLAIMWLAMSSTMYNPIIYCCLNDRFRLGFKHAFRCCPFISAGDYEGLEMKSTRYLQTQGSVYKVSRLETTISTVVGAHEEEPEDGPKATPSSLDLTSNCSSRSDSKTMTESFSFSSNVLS
Chain of Prokineticin PKR2 (Q8NFJ6 whole entry): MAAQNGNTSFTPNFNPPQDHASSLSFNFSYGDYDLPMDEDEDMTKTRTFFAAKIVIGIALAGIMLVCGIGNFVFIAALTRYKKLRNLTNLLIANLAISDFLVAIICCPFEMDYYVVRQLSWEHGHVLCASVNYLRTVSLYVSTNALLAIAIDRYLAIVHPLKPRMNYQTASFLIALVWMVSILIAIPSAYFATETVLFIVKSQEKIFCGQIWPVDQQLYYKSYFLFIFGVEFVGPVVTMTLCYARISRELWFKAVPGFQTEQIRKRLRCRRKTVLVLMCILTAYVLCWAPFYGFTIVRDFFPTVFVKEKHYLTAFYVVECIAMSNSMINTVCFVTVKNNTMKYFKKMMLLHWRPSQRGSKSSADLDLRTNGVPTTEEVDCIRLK
Chain of Muscarinic M1 (P11229 whole entry): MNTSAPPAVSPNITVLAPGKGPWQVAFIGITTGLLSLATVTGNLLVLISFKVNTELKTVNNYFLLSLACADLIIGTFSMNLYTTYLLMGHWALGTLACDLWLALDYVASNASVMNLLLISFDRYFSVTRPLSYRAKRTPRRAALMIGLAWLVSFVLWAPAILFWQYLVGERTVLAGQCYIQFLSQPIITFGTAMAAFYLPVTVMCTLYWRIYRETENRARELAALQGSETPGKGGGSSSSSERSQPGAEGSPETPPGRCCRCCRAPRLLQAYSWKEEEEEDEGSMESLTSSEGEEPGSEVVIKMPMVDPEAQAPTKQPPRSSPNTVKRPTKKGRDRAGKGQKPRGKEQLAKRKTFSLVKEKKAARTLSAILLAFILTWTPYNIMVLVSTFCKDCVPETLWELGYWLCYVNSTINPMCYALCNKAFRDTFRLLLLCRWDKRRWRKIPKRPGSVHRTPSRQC
Chain of Adenosine A1 (P30542 whole entry): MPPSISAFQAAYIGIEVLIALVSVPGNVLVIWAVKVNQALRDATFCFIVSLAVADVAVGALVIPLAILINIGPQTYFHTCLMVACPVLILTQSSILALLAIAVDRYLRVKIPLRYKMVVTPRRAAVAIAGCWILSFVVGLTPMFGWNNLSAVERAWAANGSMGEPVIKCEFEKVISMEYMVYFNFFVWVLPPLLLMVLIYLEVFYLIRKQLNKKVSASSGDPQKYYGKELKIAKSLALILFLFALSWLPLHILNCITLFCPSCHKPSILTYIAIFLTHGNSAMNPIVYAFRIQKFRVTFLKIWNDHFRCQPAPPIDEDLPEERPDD
Chain of Neuropeptide Y (Y4) (P50391 whole entry): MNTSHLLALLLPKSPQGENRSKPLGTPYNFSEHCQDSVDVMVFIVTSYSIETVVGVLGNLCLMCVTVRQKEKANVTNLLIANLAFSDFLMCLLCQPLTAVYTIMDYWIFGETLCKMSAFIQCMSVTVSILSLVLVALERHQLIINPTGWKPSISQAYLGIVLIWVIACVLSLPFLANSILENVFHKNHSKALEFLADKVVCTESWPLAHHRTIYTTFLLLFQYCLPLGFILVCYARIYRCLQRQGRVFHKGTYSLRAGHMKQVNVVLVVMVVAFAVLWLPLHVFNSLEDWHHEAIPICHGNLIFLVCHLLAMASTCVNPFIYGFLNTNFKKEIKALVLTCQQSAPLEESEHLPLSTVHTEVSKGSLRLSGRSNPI

Take `CC[C@H]1CN(c2nc(N)c(C(N)=O)nc2Cl)CCN1C1CCN(Cc2ccc(Cl)cc2)CC1` [SCH 546738]: the AUC(0-t) in series [1] stood at 7.7 µM·h. The inhibition at 4 µM was 52% on Muscarinic M2; -5% at Prokineticin PKR2; 15% on Vasopressin (V1b); 22% on Mu opiate; 20% on Serotonergic 5HT1A; 22% on Muscarinic M1. The inhibition at 4 µM was 16% at Purinergic P2Y1; 12% at Neuropeptide Y (Y5); 0% at Adenosine A1; 30% on Muscarinic M4; -2% on Neuropeptide Y (Y4). Further, the inhibition at 2 µM on Neurokinin NK3 came out at 0%; on Adrenergic α1A, 11%; on Neurokinin NK1, 15%; at Histamine H3 it was 29%. Also, the inhibition at 10 µM on CCR1 was 9%; at Dopamine D4.2 it was 18%; at CCR2, 9%; at CXCR2 it was 20%. Also, the IC50 is 2 nM at CXCR3 ([125I-hI-TAC] 12.5 pM, 3 hr reaction, read-out: IC50); 1.8 nM at CXCR3 ([125I-hI-TAC] 50 pM, 3 hr reaction, read-out: IC50); 2.2 nM on CXCR3 ([125I-hI-TAC] 250 pM, 3 hr reaction, read-out: IC50); around 2 nM at CXCR3 ([125I]hCXCL11 12.5-250 pM, read-out: IC50 (constant, independent of input concentration)).

The inhibition is the relative decrease from the control value, in per cent.

Values taken from PMC3298469, “A selective and potent CXCR3 antagonist SCH 546738 attenuates the development of autoimmune diseases and delays graft rejection” (BMC Immunology, 2012).
